Assay results: US8236488B2, “Method of screening for therapeutic compounds for vascular disorders and hypertension based on URAT1 activity modulation” (Human Cell Systems, Inc., priority 2003, dated 2012)

Key:
Assay type in all cases: cell-based
[1] = system: rat VSMCs; assay: 14C-urate uptake into rat VSMCs in the presence of inhibitors or other organic anions; details: 20 μM 14C-urate, 37° C., 5 minutes; for uric acid uptake into VSMCs in the presence of another organic anion: 100, 250 or 500 μM PAH or lactate; for uric acid uptake into VSMCs in the presence of organic anion transporter inhibitor: 0.1, 0.5 or 1 mM probenecid or 0.5, 1 or 10 μM benzbromarone
Method: Further, the present inventors examined a mechanism of urate uptake under physiologic conditions (polarized conditions). First, the present inventors examined whether ^14C-urate competed with cold urate for uptake. The ^14C-urate uptake level by rat VSMCs was measured at 37° C. for 5 minutes using an uptake solution containing 20 μM ^14C-urate and 0, 0.1, 1, 5, 10, or 50 mg/dL cold urate. Each of the measurement results is the average±standard deviation of three wells. […] In FIG. 2, a vertical axis represents the ratio (%) of ^14C-urate uptake level determined when the ^14C-urate uptake level in the absence of cold urate is defined as 100%. A horizontal axis represents the concentration of cold urate (mg/dL).
The ^14C-urate uptake level was measured at 37° C. for 5 minutes using an uptake solution containing 20 μM ^14C-urate and 0, 0.1, 0.5 or 1 mM probenecid or 0, 0.5, 1 or 10 μM benzbromarone. Each of the measurement results is the average±standard deviation of three wells. […] In FIGS. 3 and 4, a vertical axis represents the ratio (%) of ^14C-urate uptake level determined when the ^14C-urate uptake level in the absence of probenecid (FIG. 3) or benzbromarone (FIG. 4) is defined as 100%. A horizontal axis in FIG. 3 represents the concentration of probenecid (mM), and a horizontal axis in FIG. 4 represents the concentration of benzbromarone (μM). An asterisk (*) in the FIGS. 3 and 4 indicate that there is a significant difference (p<0.05)
Further, another test was carried out to examine whether ^14C-urate competed with an organic anion such as para-amino hippurate (PAH) or lactate for uptake. The ^14C-urate uptake level by rat VSMCs was measured at 37° C. for 5 minutes using an uptake solution containing 20 μM ^14C-urate and 0, 100, 250 or 500 μM PAH or 0, 100, 250 or 500 lactate. In addition, the ^14C-urate uptake level by rat VSMCs was also measured using an uptake solution containing 20 μM ^14C-urate and 250 μM uric acid (UA). Each of the measurement results is the average±standard deviation of three wells. […] In FIGS. 5 and 6, a vertical axis represents the ratio (%) of ^14C-urate uptake level determined when the ^14C-urate uptake level in the absence of PAH (FIG. 5) or lactate (FIG. 6) is defined as 100%. A horizontal axis in FIG. 5 represents the concentration of PAH (μM), and a horizontal axis in FIG. 6 represents the concentration of lactate (μM). An asterisk (*) in FIGS. 5 and 6 indicate that there is a significant difference (p<0.05).
(§1) In the following experiments, vascular smooth muscle cells (VSMCs) derived from rat aorta were used (see Zhang S, Yang Y, et al., Circulation., 2003; 107, 1539-44). These cells were cultured in Dulbecco' s Modified Eagle Medium (DMEM, GIBCO) containing 10% fetal bovine serum (FBS), 1% glutamine, and 1% penicillin/streptomycin solution (100 units/ml penicillin, 100 μg/mL streptomycin; GIBCO). The cultured VSMCs were transferred into wells of a 35-mm six-well culture plate (NUNC), and were then maintained at 37° C. in an atmosphere of 5% carbon dioxide and 95% air in a humidified tissue culture incubator. The culture medium was replaced every 2 days. The VSMCs used in the experiments were 5th to 12th generation cells.
The VSMCs (4×10^5 cells) were transferred into wells of a six-well culture plate together with 10% FBS-DMEM. After a lapse of one day, the VSMCs were placed in DMEM medium without serum and incubated over night to stop growth. In all the experiments, cells and all the solutions used were maintained at 37° C. […]

[2] = system: rat VSMCs; assay: VSMC proliferation test (3H-thymidine uptake); details: 24 hour incubation; for effect of inhibitor alone on cell proliferation: absence of uric acid
Method: Next, the present inventors examined whether an inhibitor of organic anion transportation inhibited the response of VSMC proliferation. Proliferation of VSMCs after 24 hour incubation was determined by measuring the ^3H-thymidine uptake level. This test was carried out for cases where no uric acid (UA) was present, 3 mg/dL uric acid (UA) was present, 3 mg/dL uric acid and 0.1, 0.5 or 1 mM probenecid were present, and 3 mg/dL uric acid (UA) and 0.5, 1 or 10 μM benzbromarone were present. In addition, the test was also carried out for cases where probenecid was present alone and benzbromarone was present alone. Each of the measurement results is the average±standard deviation of three wells (CPM). FIGS. 7 and 8 show the result of the test carried out to examine the effect of probenecid (FIG. 7) or benzbromarone (FIG. 8) on inhibition of response of VSMC proliferation. In FIGS. 7 and 8, a vertical axis represents the ^3H-thymidine uptake (CPM) level, a horizontal axis represents the concentration of uric acid or the concentration of an inhibitor.
as §1
The VSMCs (4×10^5 cells) were transferred into wells of a six-well culture plate together with 10% FBS-DMEM, and were cultured for 24 hours. Then, the cells were starved for 48 hours in 0.5% FBS-DMEM, and the resting VSMCs were stimulated with 3 mg/dL uric acid containing 1 μCi ^3H-thymidine to detect DNA synthesis. Further, 2 μCi/mL ^3H-thymidine was added to each well 2 hours before harvesting the cells. The cells were washed with ice-cooled PBS three times, and were lysed in 1 mL of 1N NaOH. 0.5 mL of the cell lysate was added to 5 mL of scintillation fluid to measure the ^3H-thymidine uptake level by the cells. The ^3H-thymidine uptake level by the cells was expressed as CMP/well and counted in a liquid scintillation counter. Some experiments were carried out in the presence of different concentrations of probenecid or benzbromarone (organic anion transporter inhibitor).

[3] = system: MCP-1; assay: ELISA of MCP-1 protein secreted into culture supernatant of rat VSMCs; details: 24 hours
Method: The present inventors have already reported that uric acid induces the production of MCP-1 (see Non-Patent Document 8). The production of MCP-1 in VSMC was examined. Rat VSMCs were cultured for 24 hours, and the amount of MCP-1 secreted into culture supernatant was measured by ELISA. A test was carried out for cases where 3 mg/dL uric acid (UA) was present, 3 mg/dL uric acid and 1 mM probenecid were present, and probenecid was present alone. In FIG. 10, a vertical axis represents the amount of MCP-1 (pg/1000 cells), and a horizontal axis represents cases where nothing was present (No UA), 3 mg/dL uric acid was present (UA), 3 mg/dL uric acid and 1 mM probenecid were present (UA+Prob), and probenecid was present alone (Prob), and two asterisks (**) indicate that there is a significant difference (p<0.05) when compared to a control. […] The VSMCs (5×10^4 cells/well) were placed in wells of a 24-well plate, and serum was deprived after reaching 70% confluence. Then, media with or without 3 mg/dL uric acid was added and the cells were cultured for 24 hours in the presence or absence of 1 mM probenecid. The amount of MCP-1 protein contained in supernatant was measured by ELISA (OptEIA MCP-1 set, BD Pharmingen), and corrected for cell number. Each experiment was repeated three times.

[4] = system: rat VSMCs; assay: Urate uptake into VSMCs under polarized and depolarized conditions; details: 20 μM 14C-urate
Method: Urate uptake into vascular smooth muscle cells (VSMCs) was examined under polarized and depolarized conditions. The ^14C-urate uptake level by VSMCs was measured using an uptake solution containing 20 μM ^14C-urate under polarized conditions (HEPES-physiological saline solution) or depolarized conditions (100 mM KCl uptake solution) for 120 minutes. The ^14C-urate uptake level was measured every one minute. Each of the measurement results is the average±standard deviation of three wells. In FIG. 1, a vertical axis represents the ^14C-urate uptake (CPM) level, a horizontal axis represents time (min), the symbol “□” represents a case where urate uptake was examined under depolarized conditions, and the symbol “♦” represents a case where urate uptake was examined under polarized conditions. […] It can be known that urate is rapidly taken up by rat VSMCs, that under depolarized conditions, urate uptake reaches steady state within about 15 minutes, and that under polarized conditions, urate uptake reaches steady state within about 30 minutes.
Further, in still another experiment, urate uptake was examined under polarized or depolarized conditions to determine whether urate uptake was voltage sensitive. The conditions for the experiment were the same as described above except that a culture solution for polarized conditions and a culture solution for depolarized conditions were different. More specifically, after 12 hour starvation, the serum free medium was removed and replaced with 0.45 mL of HEPES-physiological saline solution (PSS) containing 140 mM NaCl, 4 mM KCl, 2 mMCaCl2, 1 mM MgCl2, 5 mM glucose, and 16 mM HEPES-tris (pH 7.4) for polarized conditions, or 100 mM-KCl uptake solution containing 44 mM NaCl, 100 mM KCl, 2 mM CaCl2, 1 mM MgCl2, 5 mM glucose, and 16 mM HEPES-tris (pH 7.4) for depolarized conditions.

SMILES: Nc1ccc(C(=O)NCC(=O)O)cc1 [PAH, para-amino hippurate]
- uric acid uptake into VSMCs in the presence of another organic anion [1]: inhibited

SMILES: CCc1oc2ccccc2c1C(=O)c1cc(Br)c(O)c(Br)c1 [benzbromarone]
- uric acid uptake into VSMCs in the presence of organic anion transporter inhibitor [1]: concentration-dependently reduced
- effect of inhibitor alone on cell proliferation [2]: The same was observed

SMILES: CC(O)C(=O)O (centres unmarked) [lactate]
- uric acid uptake into VSMCs in the presence of another organic anion [1]: more weakly inhibited

SMILES: CCCN(CCC)S(=O)(=O)c1ccc(C(=O)O)cc1 [probenecid]
- uric acid uptake into VSMCs in the presence of organic anion transporter inhibitor [1]: concentration-dependently reduced
- increase in uric acid-induced production of MCP-1 ([3]; 3 mg/dL uric acid and 1 mM probenecid): inhibited
- production of MCP-1 with inhibitor alone ([3]; probenecid alone, no uric acid): not inhibited
- uric acid-induced increase in the 3H-thymidine uptake level (VSMC proliferation) ([2]; 3 mg/dL uric acid plus inhibitor): concentration-dependently inhibited
- effect of inhibitor alone on cell proliferation [2]: little effect on cell proliferation

SMILES: O=c1[nH]c(=O)c2[nH]c(=O)[nH]c2[nH]1 [uric acid]
- competition between 14C-urate and cold urate for uptake by rat VSMCs ([1]; 0.1, 1, 5, 10 or 50 mg/dL cold urate): more effectively competed
- 3H-thymidine uptake level by rat VSMCs ([2]; 3 mg/dL uric acid): increased
- urate uptake level, depolarized versus polarized conditions ([4]; up to 120 minutes): larger under depolarized conditions than under polarized conditions
- time until urate uptake reaches steady state ([4]; depolarized conditions (100 mM KCl uptake solution)): ≤ 15 min
- time until urate uptake reaches steady state ([4]; polarized conditions (HEPES-physiological saline solution)): ≤ 30 min
